This passage reports EC50 results from patent US9388147B2 (Receptos, Inc., priority 2009, dated 2016).

Molecules are shown by their SMILES.

The target in this assay is S1P1/EDG1 (Homo sapiens, UniProt P21453). Description: S1P1 CRE-bla CHOK1 reporter assay, inhibition of Forskolin induced cAMP. The format is cell-based. Conditions: agonist activity range, S1P1 CRE-bla CHOK1, 2 μM Forskolin; read-out: S1P1 ACTIVITY
Chain of S1P1/EDG1 (P21453 whole entry): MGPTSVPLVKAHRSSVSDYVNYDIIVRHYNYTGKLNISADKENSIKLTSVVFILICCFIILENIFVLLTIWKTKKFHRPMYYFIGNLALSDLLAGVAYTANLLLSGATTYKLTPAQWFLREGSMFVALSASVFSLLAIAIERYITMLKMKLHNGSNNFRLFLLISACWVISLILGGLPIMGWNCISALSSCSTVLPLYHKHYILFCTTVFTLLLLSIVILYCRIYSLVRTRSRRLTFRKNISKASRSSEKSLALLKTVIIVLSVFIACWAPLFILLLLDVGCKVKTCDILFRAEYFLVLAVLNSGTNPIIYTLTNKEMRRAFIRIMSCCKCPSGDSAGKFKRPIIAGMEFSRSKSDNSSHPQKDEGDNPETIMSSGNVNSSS
The procedure, abridged: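 Read-out is a FRET β-lactamase substrate (2 h, room temperature) after 4 h, 37 °C compound treatment under 2 μM Forskolin in stable S1P1-transfected CRE-bla CHO-K1 cells. Ten-point curves; non-linear regression gives EC50 for inhibition of Forskolin-stimulated cAMP.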
In general terms: A reporter such as luciferase makes a cellular process visible.
`CC(C)Oc1ccc(-c2nc(-c3cccc4c3CC[C@@H]4NCCS(C)(=O)=O)no2)cc1C#N` [Compound 126]: the EC50 was in the range of 0.05 to 0.5 nM.

Turning to `CC(C)Oc1ccc(-c2nc(-c3cccc4c3CC[C@H]4NCC(=O)N3CC3)no2)cc1C#N` [Compound 127], the EC50 is 0.5 to 5 nM.

Regarding `CC(C)Oc1ccc(-c2nc(-c3cccc4c3CC[C@H]4NCC(=O)N3CCC3)no2)cc1C#N` [Compound 128], the EC50 lay in the range of 0.05 to 0.5 nM.

For the molecule `CC(C)Oc1ccc(-c2nc(-c3cccc4c3CC[C@H]4NCC(=O)N3CCCC3)no2)cc1C#N` [Compound 129], the EC50 was 0.05 to 0.5 nM.

In the case of `CC(C)Oc1ccc(-c2nc(-c3cccc4c3CC[C@H]4NCC(=O)N3CCCCC3)no2)cc1C#N` [Compound 130], the EC50 is 0.5 to 5 nM.

Consider `CC(C)Oc1ccc(-c2nc(-c3cccc4c3CC[C@H]4NCC(=O)N3CCNCC3)no2)cc1C#N` [Compound 131], for which the EC50 is > 5 nM.

Turning to `CC(C)Oc1ccc(-c2nc(-c3cccc4c3CC[C@H]4NCC(=O)N3CCN(C)CC3)no2)cc1C#N` [Compound 132], the EC50 was in the range of 0.5 to 5 nM.

Turning to `CC(C)Oc1ccc(-c2nc(-c3cccc4c3CC[C@H]4NCC(=O)N3CC[C@@H](O)C3)no2)cc1C#N` [Compound 133], the EC50 is 0.05 to 0.5 nM.

For the molecule `CC(C)Oc1ccc(-c2nc(-c3cccc4c3CC[C@H]4NCC(=O)N3CC[C@H](O)C3)no2)cc1C#N` [Compound 134], the EC50 fell in the range of 0.05 to 0.5 nM.

Turning to `CC(C)Oc1ccc(-c2nc(-c3cccc4c3CC[C@H]4NCC(=O)NCCO)no2)cc1C#N` [Compound 135], the EC50 lay in the range of 0.05 to 0.5 nM.

Consider `CC(C)Oc1ccc(-c2nc(-c3cccc4c3CC[C@@H]4NC(=O)CN(C)C)no2)cc1C#N` [Compound 136], for which the EC50 is 0.05 to 0.5 nM.

As to `CC(C)Oc1ccc(-c2nc(-c3cccc4c3CC[C@@H]4NC(=O)CO)no2)cc1C#N` [Compound 137], the EC50 is < 0.05 nM.

As for `CC(=O)N[C@@H]1CCc2c(-c3noc(-c4ccc(OC(C)C)c(C#N)c4)n3)cccc21` [Compound 138, (R)-N-(4-(5-(3-cyano-4-isopropoxyphenyl)-1,2,4-oxadiazol-3-yl)-2,3-dihydro-1H-inden-1-yl)acetamide], the EC50 is < 0.05 nM.

With `CC(=O)N[C@H]1CCc2c(-c3noc(-c4ccc(OC(C)C)c(C#N)c4)n3)cccc21` [Compound 139, (S)-N-(4-(5-(3 cyano-4-isopropoxyphenyl)-1,2,4-oxadiazol-3-yl)-2,3-dihydro-1H-inden-1-yl)acetamide], the EC50 was in the range of 0.05 to 0.5 nM.

In the case of `CC(C)Oc1ccc(-c2nc(-c3cccc4c3CC[C@H]4NCC(F)F)no2)cc1C#N` [Compound 140], the EC50 lay within 0.5 to 5 nM.

Turning to `CC(C)Oc1ccc(-c2nc(-c3cccc4c3CC[C@@H]4NCC(F)F)no2)cc1C#N` [Compound 141], the EC50 was 0.05 to 0.5 nM.

For `CC(C)Oc1ccc(-c2nc(-c3cccc4c3CC[C@@H]4NCCF)no2)cc1C#N` [Compound 142], the EC50 lay in the range of 0.05 to 0.5 nM.

Consider `CN[C@@H]1CCc2c(-c3noc(-c4ccc(OC(C)C)c(C#N)c4)n3)cccc21` [Compound 143], for which the EC50 was 0.05 to 0.5 nM.

`CCCN[C@H]1CCc2c(-c3noc(-c4ccc(OC(C)C)c(C#N)c4)n3)cccc21` [Compound 144]: the EC50 is 0.05 to 0.5 nM.

Turning to `COC(=O)CCCN[C@H]1CCc2c(-c3noc(-c4ccc(OC(C)C)c(C#N)c4)n3)cccc21` [Compound 145], the EC50 was < 0.05 nM.

Regarding `CC(C)Oc1ccc(-c2nc(-c3cccc4c3CC[C@@H]4NCCCC(=O)O)no2)cc1C#N` [Compound 146], the EC50 is < 0.05 nM.

In the case of `CC(C)Oc1ccc(-c2nc(-c3cccc4c3CC[C@@H]4NCCCCC(=O)O)no2)cc1C#N` [Compound 148], the EC50 was < 0.05 nM.

Turning to `COC(=O)N[C@@H]1CCc2c(-c3noc(-c4ccc(OC(C)C)c(C#N)c4)n3)cccc21` [Compound 149, (R)-methyl (4-(5-(3-cyano-4-isopropoxyphenyl)-1,2,4-oxadiazol-3-yl)-2,3-dihydro-1H-inden-1-yl)carbamate], the EC50 was 0.05 to 0.5 nM.

Turning to `COC(=O)N[C@H]1CCc2c(-c3noc(-c4ccc(OC(C)C)c(C#N)c4)n3)cccc21` [Compound 150], the EC50 lay within 0.05 to 0.5 nM.

Turning to `CCOC(=O)N[C@@H]1CCc2c(-c3noc(-c4ccc(OC(C)C)c(C#N)c4)n3)cccc21` [Compound 151], the EC50 was 0.5 to 5 nM.

In the case of `CCOC(=O)N[C@H]1CCc2c(-c3noc(-c4ccc(OC(C)C)c(C#N)c4)n3)cccc21` [Compound 152], the EC50 lay within 0.5 to 5 nM.

Take `CC(C)Oc1ccc(-c2nc(-c3cccc4c3CC[C@@H]4NC(=O)OCCO)no2)cc1C#N` [Compound 153]: the EC50 lay in the range of 0.05 to 0.5 nM.

In the case of `CC(C)Oc1ccc(-c2nc(-c3cccc4c3CC[C@H]4N3CCOC3=O)no2)cc1C#N` [Compound 154, (R)-2-isopropoxy-5-(3-(1-(2-oxooxazolidin-3-yl)-2,3-dihydro-1H-inden-4-yl)-1,2,4-oxadiazol-5-yl)benzonitrile], the EC50 was in the range of 0.05 to 0.5 nM.

As to `CC(C)Oc1ccc(-c2nc(-c3cccc4c3CC[C@@H]4N3CCOC3=O)no2)cc1C#N` [Compound 155], the EC50 lay in the range of 0.05 to 0.5 nM.

As to `CC(C)Oc1ccc(-c2nc(-c3cccc4c3CC[C@H]4NCc3ccccc3)no2)cc1C#N` [Compound 156], the EC50 lay in the range of 0.5 to 5 nM.

As for `CC(C)Oc1ccc(-c2nc(-c3cccc4c3CC[C@@H]4NCc3ccccc3)no2)cc1C#N` [Compound 157], the EC50 fell in the range of 0.5 to 5 nM.

For the molecule `Cc1c[nH]c(CN[C@H]2CCc3c(-c4noc(-c5ccc(OC(C)C)c(C#N)c5)n4)cccc32)n1` [Compound 159], the EC50 was in the range of 0.5 to 5 nM.

Turning to `CC(C)Oc1ccc(-c2nc(-c3cccc4c3CC[C@@H]4NCc3nc4ccccc4[nH]3)no2)cc1C#N` [Compound 160], the EC50 was 0.5 to 5 nM.

On to `CC(C)Oc1ccc(-c2nc(-c3cccc4c3CC[C@@H]4NCc3cncs3)no2)cc1C#N` [Compound 161], for which the EC50 was in the range of 0.05 to 0.5 nM.

As for `Cc1cc(CN[C@H]2CCc3c(-c4noc(-c5ccc(OC(C)C)c(C#N)c5)n4)cccc32)[nH]n1` [Compound 162], the EC50 was 0.5 to 5 nM.

In the case of `CCOCCS(=O)(=O)N[C@@H]1CCc2c(-c3noc(-c4ccc(OC(C)C)c(C#N)c4)n3)cccc21` [Compound 165], the EC50 lay within 0.05 to 0.5 nM.

Take `CC(C)Oc1ccc(-c2nc(-c3cccc4c3CC[C@H]4NS(=O)(=O)C3CC3)no2)cc1C#N` [Compound 166]: the EC50 lay within 0.05 to 0.5 nM.

As to `CC(C)Oc1ccc(-c2nc(-c3cccc4c3CC[C@@H]4NS(=O)(=O)C3CC3)no2)cc1C#N` [Compound 167], the EC50 was in the range of 0.05 to 0.5 nM.

As to `CC(C)Oc1ccc(-c2nc(-c3cccc4c3CC[C@@H]4NS(=O)(=O)CCC3CCC3)no2)cc1C#N` [Compound 168], the EC50 is 0.05 to 0.5 nM.

On to `CC(C)Oc1ccc(-c2nc(-c3cccc4c3CC[C@@H]4NS(=O)(=O)CCN3CCC3)no2)cc1C#N` [Compound 169], for which the EC50 lay within 0.5 to 5 nM.

As for `CC(C)Oc1ccc(-c2nc(-c3cccc4c3CC[C@H]4NS(=O)(=O)CCN3CCCC3)no2)cc1C#N` [Compound 170], the EC50 was in the range of 0.5 to 5 nM.

As to `CC(C)Oc1ccc(-c2nc(-c3cccc4c3CC[C@H]4NS(=O)(=O)CCN3CC[C@@H](O)C3)no2)cc1C#N` [Compound 171], the EC50 was 0.05 to 0.5 nM.

Take `CC(C)Oc1ccc(-c2nc(-c3cccc4c3CC[C@H]4NS(=O)(=O)CCN3CC[C@H](O)C3)no2)cc1C#N` [Compound 172]: the EC50 was 0.5 to 5 nM.

Take `CC(C)Oc1ccc(-c2nc(-c3cccc4c3CC[C@@H]4NS(=O)(=O)CCN3CC[C@@H](O)C3)no2)cc1C#N` [Compound 173]: the EC50 lay in the range of 0.5 to 5 nM.

`CC(C)Oc1ccc(-c2nc(-c3cccc4c3CC[C@@H]4NS(=O)(=O)CCN3CC[C@H](O)C3)no2)cc1C#N` [Compound 174]: the EC50 lay within 0.5 to 5 nM.

`CC(C)Oc1ccc(-c2nc(-c3cccc4c3CC[C@H]4NS(=O)(=O)CCN3CCCCC3)no2)cc1C#N` [Compound 175]: the EC50 lay in the range of 0.5 to 5 nM.

Consider `CC(C)Oc1ccc(-c2nc(-c3cccc4c3CC[C@H]4NS(=O)(=O)CCN3CCOCC3)no2)cc1C#N` [Compound 176], for which the EC50 is 0.5 to 5 nM.

Take `CC(C)Oc1ccc(-c2nc(-c3cccc4c3CC[C@@H]4NS(=O)(=O)CCN3CCOCC3)no2)cc1C#N` [Compound 177]: the EC50 lay within 0.5 to 5 nM.

`COC(=O)CCS(=O)(=O)N[C@H]1CCc2c(-c3noc(-c4ccc(OC(C)C)c(C#N)c4)n3)cccc21` [Compound 182]: the EC50 fell in the range of 0.05 to 0.5 nM.

Regarding `COC(=O)C(C)(C)CS(=O)(=O)N[C@H]1CCc2c(-c3noc(-c4ccc(OC(C)C)c(C#N)c4)n3)cccc21` [Compound 183], the EC50 lay within 0.5 to 5 nM.

As to `CC(C)Oc1ccc(-c2nc(-c3cccc4c3CC[C@H]4NS(=O)(=O)CC(=O)O)no2)cc1C#N` [Compound 184, (R)-2 (N (4-(5-(3 cyano-4-isopropoxyphenyl)-1,2,4-oxadiazol-3-yl)-2,3-dihydro-1H-inden-1-yl)sulfamoyl)acetic acid], the EC50 is < 0.05 nM.

For `CC(C)Oc1ccc(-c2nc(-c3cccc4c3CC[C@@H]4NS(=O)(=O)CCC(=O)O)no2)cc1C#N` [Compound 185], the EC50 is < 0.05 nM.

In the case of `CC(C)Oc1ccc(-c2nc(-c3cccc4c3CC[C@H]4NS(=O)(=O)CCCO)no2)cc1C#N` [Compound 188], the EC50 was < 0.05 nM.

Turning to `CC(C)Oc1ccc(-c2nc(-c3cccc4c3CC[C@@H]4NS(=O)(=O)CC(=O)N3CC(O)C3)no2)cc1C#N` [Compound 189], the EC50 was in the range of 0.05 to 0.5 nM.

`CC(C)Oc1ccc(-c2nc(-c3cccc4c3CC[C@H]4NS(=O)(=O)CC(=O)N3CC(O)C3)no2)cc1C#N` [Compound 190]: the EC50 is < 0.05 nM.

`CC(C)Oc1ccc(-c2nc(-c3cccc4c3CC[C@@H]4NS(=O)(=O)CC(=O)N3CCOCC3)no2)cc1C#N` [Compound 191]: the EC50 lay in the range of 0.05 to 0.5 nM.

Regarding `CC(C)Oc1ccc(-c2nc(-c3cccc4c3CC[C@H]4NS(=O)(=O)CC(=O)N3CCOCC3)no2)cc1C#N` [Compound 192], the EC50 is < 0.05 nM.

For the molecule `CC(C)Oc1ccc(-c2nc(-c3cccc4c3CC[C@@H]4NS(=O)(=O)CC(=O)N3CCC(O)CC3)no2)cc1C#N` [Compound 193], the EC50 is 0.05 to 0.5 nM.
